Source: patent publication US20260022143A1, “Cyclic Peptide Inhibitors of IL-23” (JANSSEN PHARMACEUTICA NV, priority 2022, published 2026)
Starred links: 1 amine or outer side, 2 acyl side, 3 side chain; linkers in the order of their positions; H or OH if unused. Positions of bridges follow the written chain, without caps; N, C: chain ends. Non-standard residues stand in square brackets, D forms with d. Residues, ends and D or L forms follow the SMILES beside them. *: point of attachment. Trp(7-(3-AcNH-Ph)) = CC(=O)Nc1cccc(-c2cccc3c(C[C@H](N)C(=O)O)c[nH]c23)c1; X13 = C[N+]1(Cc2cn(-c3ccc(C[C@H](N[*:1])C(=O)[*:2])cc3)nn2)CCOCC1; X51 = C[N+](C)(C)CCCc1cn(-c2ccc(C[C@H](N[*:1])C(=O)[*:2])cc2)nn1; Me3N+(CH2)2O(CH2)2O(CH2)2CO = C[N+](C)(C)CCOCCOCCC(=O)*; CH2CH2OCH2CH2OCH2CH2NMe3+ = C[N+](C)(C)CCOCCOCC*; Trp(7-Me) = Cc1cccc2c(C[C@H](N)C(=O)O)c[nH]c12; dLys(Me3) = C[N+](C)(C)CCCC[C@@H](N)C(=O)O; 2Nal = N[C@@H](Cc1ccc2ccccc2c1)C(=O)O; AEF = NCCOc1ccc(C[C@H](N)C(=O)O)cc1; 3Pal = N[C@@H](Cc1cccnc1)C(=O)O; Lys(Me) = CNCCCC[C@H](N)C(=O)O; X53 = C[N+]1(CCOCCOCC*)CCOCC1; Pen = CC(C)(S)[C@H](N)C(=O)O; X8 = C[N+](C)(C)CCCCCCCC*; Thp = NC1(C(=O)O)CCOCC1; Sar = CNCC(=O)O

Tests used:
IL-23R = molecular target: T1, IL-23R (Homo sapiens, UniProt Q5VWK5); experiment: IL23R Reporter Assay; format: cell-based; conditions: HEK293 cells containing IL-23R, IL-12RP1 and STAT-inducible firefly luciferase reporter; 10 ng/mL IL-23 (EC90); 5 h at 37° C.; read-out: IL23R Reporter Assay
T1 construct: host or cells: HEK293
T1 sequence (Q5VWK5 24-629): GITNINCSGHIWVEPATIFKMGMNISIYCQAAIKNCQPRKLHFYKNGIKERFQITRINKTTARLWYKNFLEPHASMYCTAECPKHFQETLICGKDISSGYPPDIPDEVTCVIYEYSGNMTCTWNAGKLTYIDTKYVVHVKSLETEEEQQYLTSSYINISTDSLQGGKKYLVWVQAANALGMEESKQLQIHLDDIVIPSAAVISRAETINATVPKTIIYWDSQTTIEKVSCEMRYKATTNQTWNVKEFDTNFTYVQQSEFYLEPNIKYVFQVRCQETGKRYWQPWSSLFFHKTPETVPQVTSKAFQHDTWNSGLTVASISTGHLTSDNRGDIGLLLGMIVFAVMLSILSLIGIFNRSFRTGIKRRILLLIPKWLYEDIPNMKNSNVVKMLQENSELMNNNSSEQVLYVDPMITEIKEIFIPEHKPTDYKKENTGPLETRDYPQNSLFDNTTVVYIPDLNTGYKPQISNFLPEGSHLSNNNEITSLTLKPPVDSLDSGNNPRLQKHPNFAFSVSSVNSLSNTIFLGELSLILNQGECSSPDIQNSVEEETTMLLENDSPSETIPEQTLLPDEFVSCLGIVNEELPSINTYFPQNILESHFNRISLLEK

[1] = Exposed Polar Surface Area (EPSA); format: physicochemical; conditions: SFC on Chirex 3014 column; sample 1 mM DMSO stock; read-out: EPSA
Summary of the method: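 Retention-based polarity: supercritical CO2 with 20 mM ammonium formate in MeOH (5–60%, 20%/min), Chirex 3014 column, 35 °C. Calibrated against 8 standards to give EPSA (Å^2); each sample measured twice.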

| Compound | IC50 (IL-23R) | EPSA [1] |
| --- | --- | --- |
| CC(=O)NCCCC[C@@H]1NC(=O)[C@H](Cc2c[nH]c3c(C)cccc23)NC(=O)[C@H]([C@@H](C)O)NC(=O)[C@H](CC(N)=O)NC(=O)[C@@H](NC(C)=O)C(C)(C)SSC(C)(C)[C@@H](C(=O)N[C@@H](Cc2ccc(OCCOCCOCC[N+]3(C)CCOCC3)cc2)C(=O)N[C@@H](Cc2ccc3ccccc3c2)C(=O)NC2(C(=O)N[C@@H](CCCCNC(C)=O)C(=O)N[C@@H](CC(N)=O)C(=O)N[C@@H](Cc3cccnc3)C(=O)N(C)CC(N)=O)CCOCC2)NC1=O [compound 455] (Ac-[Pen]NT[Trp(7-Me)]K(Ac)[Pen]Y(X53)[2Nal][Thp]K(Ac)N[3Pal][Sar]-NH2; disulfide 1-6) | 2.1 nM | 158 A^2 |
| CC(=O)NCCCC[C@@H]1NC(=O)[C@H](Cc2c[nH]c3c(C)cccc23)NC(=O)[C@H]([C@@H](C)O)NC(=O)[C@H](CC(N)=O)NC(=O)[C@@H](NC(C)=O)C(C)(C)SSC(C)(C)[C@@H](C(=O)N[C@@H](Cc2ccc(OCCCCCCCC[N+](C)(C)C)cc2)C(=O)N[C@@H](Cc2ccc3ccccc3c2)C(=O)NC2(C(=O)N[C@@H](CCCCNC(C)=O)C(=O)N[C@@H](CC(N)=O)C(=O)N[C@@H](Cc3cccnc3)C(=O)N(C)CC(N)=O)CCOCC2)NC1=O [compound 456] (Ac-[Pen]NT[Trp(7-Me)]K(Ac)[Pen]Y(X8)[2Nal][Thp]K(Ac)N[3Pal][Sar]-NH2; disulfide 1-6 (inferred)) | 1.5 nM | 156 A^2 |
| CC(=O)NCCCC[C@@H]1NC(=O)[C@H](Cc2c[nH]c3c(C)cccc23)NC(=O)[C@H]([C@@H](C)O)NC(=O)[C@H](CC(N)=O)NC(=O)[C@@H](NC(C)=O)C(C)(C)SSC(C)(C)[C@@H](C(=O)N[C@@H](Cc2ccc(-n3cc(CCC[N+](C)(C)C)nn3)cc2)C(=O)N[C@@H](Cc2ccc3ccccc3c2)C(=O)NC2(C(=O)N[C@@H](CCC(=O)O)C(=O)N[C@@H](CC(N)=O)C(=O)N[C@@H](Cc3cccnc3)C(=O)N(C)CC(N)=O)CCOCC2)NC1=O [compound 458] (Ac-[Pen]NT[Trp(7-Me)]K(Ac)[Pen][X51][2Nal][Thp]EN[3Pal][Sar]-NH2; disulfide 1-6 (inferred)) | 2.6 nM | 172 A^2 |
| CC(=O)NCCCC[C@@H]1NC(=O)[C@H](Cc2c[nH]c3c(C)cccc23)NC(=O)[C@H]([C@@H](C)O)NC(=O)[C@H](CC(N)=O)NC(=O)[C@@H](NC(C)=O)C(C)(C)SSC(C)(C)[C@@H](C(=O)N[C@@H](Cc2ccc(-n3cc(C[N+]4(C)CCOCC4)nn3)cc2)C(=O)N[C@@H](Cc2ccc3ccccc3c2)C(=O)NC2(C(=O)N[C@@H](CCC(=O)O)C(=O)N[C@@H](CC(N)=O)C(=O)N[C@@H](Cc3cccnc3)C(=O)N(C)CC(N)=O)CCOCC2)NC1=O [compound 459] (Ac-[Pen]NT[Trp(7-Me)]K(Ac)[Pen][X13][2Nal][Thp]EN[3Pal][Sar]-NH2; disulfide 1-6 (inferred)) | 1.8 nM | 178 A^2 |
| CC(=O)NCCCC[C@@H]1NC(=O)[C@H](Cc2c[nH]c3c(-c4cccc(NC(C)=O)c4)cccc23)NC(=O)[C@H]([C@@H](C)O)NC(=O)[C@H](CC(N)=O)NC(=O)[C@@H](NC(=O)[C@@H](CCCC[N+](C)(C)C)NC(C)=O)C(C)(C)SSC(C)(C)[C@@H](C(=O)N[C@@H](Cc2ccc(OCCN)cc2)C(=O)N[C@@H](Cc2ccc3ccccc3c2)C(=O)NC2(C(=O)N[C@@H](CCC(=O)O)C(=O)N[C@@H](CC(N)=O)C(=O)N[C@@H](Cc3cccnc3)C(=O)N(C)CC(N)=O)CCOCC2)NC1=O [compound 461] (Ac-[dLys(Me3)][Pen]NT[Trp(7-(3-AcNH-Ph))]K(Ac)[Pen][AEF][2Nal][Thp]EN[3Pal][Sar]-NH2; disulfide 2-7 (inferred)) | 1.4 nM | 192 A^2 |
| CC(=O)N(C)CCCC[C@H](NC(=O)[C@H](CC(C)C)NC(=O)[C@H](Cc1ccc2ccccc2c1)NC(=O)[C@H](Cc1ccc(OCCOCCOCC[N+](C)(C)C)cc1)NC(=O)[C@H]1NC(=O)[C@H](CC(C)C)NC(=O)[C@H](Cc2c[nH]c3c(C)cccc23)NC(=O)[C@H]([C@@H](C)O)NC(=O)[C@H](CC(C)C)NC(=O)[C@@H](NC(=O)CCOCCOCC[N+](C)(C)C)C(C)(C)SSC1(C)C)C(=O)N[C@@H](CC(N)=O)C(=O)N[C@@H](Cc1cccnc1)C(=O)N(C)CC(=O)N(C)C [compound 463, cPEG3aCO-Pen(3)-L-T-7MeW-L-Pen(3)-APEG3f-2Nal-L-K(NMeAc)-N-3Pya-Sar-CON(Me)2] ({Me3N+(CH2)2O(CH2)2O(CH2)2CO}-[Pen]LT[Trp(7-Me)]L[Pen]Y(CH2CH2OCH2CH2OCH2CH2NMe3+)[2Nal]L[Lys(Me)](Ac)N[3Pal][Sar]-NMe2; disulfide 1-6) | 9 nM | 151 A^2 |
| CC(=O)N(C)CCCC[C@H](NC(=O)[C@H](Cc1ccccc1)NC(=O)[C@H](Cc1ccc2ccccc2c1)NC(=O)[C@H](Cc1ccc(OCCOCCOCC[N+](C)(C)C)cc1)NC(=O)[C@H]1NC(=O)[C@H](Cc2ccccc2)NC(=O)[C@H](Cc2c[nH]c3c(C)cccc23)NC(=O)[C@H]([C@@H](C)O)NC(=O)[C@H](Cc2ccccc2)NC(=O)[C@@H](NC(=O)CCOCCOCC[N+](C)(C)C)C(C)(C)SSC1(C)C)C(=O)N[C@@H](CC(N)=O)C(=O)N[C@@H](Cc1cccnc1)C(=O)N(C)CC(=O)N(C)C [compound 464, cPEG3aCO-Pen(3)-F-T-7MeW-F-Pen(3)-APEG3f-2Nal-F-K(NMeAc)-N-3Pya-Sar-CON(Me)2] ({Me3N+(CH2)2O(CH2)2O(CH2)2CO}-[Pen]FT[Trp(7-Me)]F[Pen]Y(CH2CH2OCH2CH2OCH2CH2NMe3+)[2Nal]F[Lys(Me)](Ac)N[3Pal][Sar]-NMe2; disulfide 1-6) | 30 nM | 160 A^2 |

Second part, the compound after the results:

| IC50 (IL-23R) | EPSA [1] | Compound |
| --- | --- | --- |
| 1.8 nM | 153 A^2 | CC(=O)N(C)CCCC[C@@H]1NC(=O)[C@H](Cc2c[nH]c3c(C)cccc23)NC(=O)[C@H]([C@@H](C)O)NC(=O)[C@H](CC(=O)N(C)C)NC(=O)[C@@H](NC(=O)CCOCCOCC[N+](C)(C)C)C(C)(C)SSC(C)(C)[C@@H](C(=O)N[C@@H](Cc2ccc(OCCOCCOCC[N+](C)(C)C)cc2)C(=O)N[C@@H](Cc2ccc3ccccc3c2)C(=O)NC2(C(=O)N[C@@H](C)C(=O)N[C@@H](CC(N)=O)C(=O)N[C@@H](Cc3cccnc3)C(=O)N(C)CC(=O)N(C)C)CCOCC2)NC1=O [compound 466, cPEG3aCO-Pen(3)-N(N(Me)2)-T-7MeW-K(NMeAc)-Pen(3)-APEG3F-2Nal-THP-A-N-3Pya-Sar-CON(Me)2] ({Me3N+(CH2)2O(CH2)2O(CH2)2CO}-[Pen]D(NMe2)T[Trp(7-Me)][Lys(Me)](Ac)[Pen]Y(CH2CH2OCH2CH2OCH2CH2NMe3+)[2Nal][Thp]AN[3Pal][Sar]-NMe2; disulfide 1-6) |
| 1.2 nM | 154 A^2 | CC(=O)N(C)CCCC[C@@H]1NC(=O)[C@H](Cc2c[nH]c3c(C)cccc23)NC(=O)[C@H]([C@@H](C)O)NC(=O)[C@H](CC(=O)N(C)C)NC(=O)[C@@H](NC(=O)CCOCCOCC[N+](C)(C)C)C(C)(C)SSC(C)(C)[C@@H](C(=O)N[C@@H](Cc2ccc(OCCOCCOCC[N+](C)(C)C)cc2)C(=O)N[C@@H](Cc2ccc3ccccc3c2)C(=O)NC2(C(=O)N[C@@H](CC(C)C)C(=O)N[C@@H](CC(N)=O)C(=O)N[C@@H](Cc3cccnc3)C(=O)N(C)CC(=O)N(C)C)CCOCC2)NC1=O [compound 467, cPEG3aCO-Pen(3)-N(N(Me)2)-T-7MeW-K(NMeAc)-Pen(3)-APEG3F-2Nal-THP-L-N-3Pya-Sar-CON(Me)2] ({Me3N+(CH2)2O(CH2)2O(CH2)2CO}-[Pen]D(NMe2)T[Trp(7-Me)][Lys(Me)](Ac)[Pen]Y(CH2CH2OCH2CH2OCH2CH2NMe3+)[2Nal][Thp]LN[3Pal][Sar]-NMe2; disulfide 1-6) |
| 25 nM | 151 A^2 | CC(=O)N(C)CCCC[C@H](NC(=O)[C@H](C)NC(=O)[C@H](Cc1ccc2ccccc2c1)NC(=O)[C@H](Cc1ccc(OCCOCCOCC[N+](C)(C)C)cc1)NC(=O)[C@H]1NC(=O)[C@H](C)NC(=O)[C@H](Cc2c[nH]c3c(C)cccc23)NC(=O)[C@H]([C@@H](C)O)NC(=O)[C@H](C)NC(=O)[C@@H](NC(=O)CCOCCOCC[N+](C)(C)C)C(C)(C)SSC1(C)C)C(=O)N[C@@H](CC(N)=O)C(=O)N[C@@H](Cc1cccnc1)C(=O)N(C)CC(=O)N(C)C [compound 468, cPEG3aCO-Pen(3)-A-T-7MeW-A-Pen(3)-APEG3f-2Nal-A-K(NMeAc)-N-3Pya-Sar-CON(Me)2] ({Me3N+(CH2)2O(CH2)2O(CH2)2CO}-[Pen]AT[Trp(7-Me)]A[Pen]Y(CH2CH2OCH2CH2OCH2CH2NMe3+)[2Nal]A[Lys(Me)](Ac)N[3Pal][Sar]-NMe2; disulfide 1-6) |
